Values of other authors in publication PMC6105163, “Abaloparatide Exerts Bone Anabolic Effects with Less Stimulation of Bone Resorption-Related Factors: A Comparison with Teriparatide” (Calcified Tissue International, 2018).
Ends that are not written are not given here.

Experiments:
bone mass = details: cited from earlier work; for effect of continuous infusion: in vivo; for bone mass, intermittent administration: ref [2], [3]
Description: Parathyroid hormone (PTH) and PTH-related protein (PTHrP) have a common G protein-coupled receptor, PTH1R, which plays a pivotal role in bone turnover and calcium homeostasis.

bone turnover = details: preclinical study, ref [25], cited from earlier work
Description: (§1) There is another possibility that the two peptides could show the different activity on protein kinase C (PKC). PKC is the downstream signal of PTH1R and is involved in the stimulation of bone resorption-related factors and bone catabolism. In fact, ostabolin, an amidated form of human PTH(1–31), differs from PTH(1–34) in PKC activation.

cAMP and PKC = details: ref [24]; cited from earlier work
Description: as §1

In the case of PTH: Parathyroid hormone, the “effect of continuous infusion” value (bone mass) is listed as “caused bone loss and hypercalcemia” and the “bone mass, intermittent administration” value (bone mass) is listed as “increased bone mass”.
In the case of PTHrP: PTH-related protein, the “effect of continuous infusion” value (bone mass) is listed as “caused bone loss and hypercalcemia” and the “bone mass, intermittent administration” value (bone mass) is listed as “increased bone mass”.
In the case of “ostabolin: an amidated form of human PTH(1–31) (SVSEIQLMHNLGKHLNSMERVEWLRKKLQDV-NH2; UniProt P01270 32-62, looked up, fragment)”, the bone resorption (bone turnover; vs PTH(1–34)) is given as “less effect on bone resorption than PTH(1–34)”, the bone formation (bone turnover) is given as “stimulated bone formation similar to PTH(1–34)” and the “cAMP accumulation and PKC activation” value (cAMP and PKC) is given as “cAMP accumulation without activating PKC”.
